Results reported in patent US12171229B2, “Heteroaryl-triazole and heteroaryl-tetrazole compounds as pesticides” (BAYER AKTIENGESELLSCHAFT, priority 2018, dated 2024).

Assays:
Type in all cases: in vivo
Nezara viridula = Nezara viridula spray test; settings: 96 h, after 4 days, larvae on barley plants
How it was run: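 Mortality (%) was assessed at day 4, from 0% (no bugs dead) to 100% (all dead). The spray solution was compound diluted to test concentration in water with 1000 ppm emulsifier and applied to barley carrying southern green stink bug larvae.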

Nilaparvata lugens = Nilaparvata lugens spray test; settings: 336 h, after 14 days, rice plants
Procedure: Nilaparvata lugens—Spray Test
To produce a suitable preparation of active compound, 1 part by weight of active compound is mixed with the stated amount of solvents and is diluted with water, containing an emulsifier concentration of 1000 ppm, to the desired concentration. Further test concentrations are prepared by dilution with emulsifier containing water.
Rice plants (Oryza sativa) are sprayed with a preparation of the active ingredient of the desired concentration and the plants are infested with the brown planthopper (Nilaparvata lugens).
After 14 days mortality in % is determined. 100% means all planthoppers have been killed and 0% means none of the planthoppers have been killed.

Ctenocephalides felis [1] = test: Ctenocephalides felis in-vitro contact test, adult cat flea; settings: 5 μg/cm^2 (=500 g/ha), after 48 hours, adult cat fleas, read-out: efficacy (fleas dead or moribund)
Procedure: Ctenocephalides Felis—In-Vitro Contact Tests Adult Cat Flea 9 mg compound is solved in 1 ml acetone and diluted with acetone to the desired concentration. 250 μl of the test solution is filled in 25 ml glass test tubes and homogeneously distributed on the inner walls by rotation and tilting on a shaking device (2 h at 30 rpm). With a compound concentration of 900 ppm, an inner surface of 44.7 cm^2 and a homogeneous distribution, a dose of 5 μg/cm^2 is achieved. After the solvent has evaporated, each test tube is filled with 5-10 adult cat fleas (Ctenocephalides felis), closed with a perforated lid and incubated in a lying position at room temperature and relative humidity. After 48 hours efficacy is determined. The fleas are patted on the ground of the tubes and are incubated on a heating plate at 45-50° C. for at most 5 minutes. Immotile or uncoordinated moving fleas, which are not able to escape the heat by climbing upwards, are marked as dead or moribund. […] An efficacy of 100% means all fleas are dead or moribund; 0% means no fleas are dead or moribund.

Boophilus microplus = Boophilus microplus injection test; settings: Rhipicephalus microplus, 168 h; 20 μg/animal injected into the abdomen; adult engorged female ticks; egg deposition after 7 days; read-out: efficacy (infertile eggs)
How it was run: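 Efficacy, from 0% (all eggs fertile) to 100% (all infertile), was scored on eggs laid by five engorged adult females. Each female was injected intra-abdominally with 1 μl of compound solution in DMSO. Fertile egg laying was checked at 7 days, with uncertain eggs kept until hatching at about 42 days.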

Myzus persicae [2] = test: Myzus persicae oral test; settings: 120 h, 4 ppm, after 5 days
How it was run: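 Aphid mortality (%) was recorded 5 days after a mixed Myzus persicae population began sucking, through parafilm, on compound solutions (acetone stock diluted with water) combined with sugar-supplemented IPL41 medium.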

Ctenocephalides felis [3] = test: Ctenocephalides felis oral test; settings: 48 h, 100 ppm in cattle blood, after 2 days, adult unfed cat fleas
How it was run: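 Compound dissolved in DMSO and diluted in cattle blood to test concentration, offered to ~20 unfed adult fleas via a parafilm-sealed blood chamber held at 37° C (fleas at room temperature). Kill recorded at 2 days as % mortality.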

Diabrotica balteata = Diabrotica balteata spray test; settings: Diabrotica balteata, in Triticum aestivum, 168 h, after 7 days, larvae on wheat seeds, read-out: efficacy (seedlings grown up); for pest or weed control at 80 µg/disc, 250 g/ha: 80 μg/well (=250 g/ha); for pest or weed control at 160 µg/disc, 500 g/ha: 160 μg/well (=500 g/ha)
How it was run: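 Scoring at 7 days compares seedling growth with untreated, uninfested controls (100% = equal growth, 0% = none grown). Wheat seedlings germinated 1 day on agar, 5 per well, received a spray of test solution made in 1000 ppm emulsifier water. Each unit then received 10–20 beetle larvae.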

Spodoptera frugiperda = Spodoptera frugiperda spray test; settings: 168 h, after 7 days, larvae on maize leaf sections
How it was run: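 Percent larval kill read at day 7 on Zea mays leaf pieces that were spray-treated and, after drying, infested. Spray preparations made by dilution with emulsifier-containing water (1000 ppm).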

Myzus persicae [4] = test: Myzus persicae spray test; settings: foliar, 120 h, after 5 days, Chinese cabbage leaf disks
How it was run: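 Percent kill was recorded 5 days after spraying. Test solutions, prepared with solvent and diluted in 1000 ppm emulsifier water, were applied to Brassica pekinensis leaf disks carrying mixed-instar green peach aphids.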

C[C@H](NC(=O)c1cc(Cl)cc(C(F)(F)F)c1)c1ncnn1-c1ccc(C(=O)NCC(F)(F)F)cn1 [Example I-078] was tested, and the mortality at 100 g/ha (Nezara viridula) was 90%, the mortality at 500 g/ha (Nezara viridula) was 100% and the mortality at 500 g/ha (Nilaparvata lugens) was 100%. It also gave a pest or weed control at 5 µg/cm2 (Ctenocephalides felis [1]) of 90%, a pest or weed control at 0.02 mg (Boophilus microplus) of 100% and a mortality at 4 ppm (Myzus persicae [2]) of 100%. For the same compound, the mortality at 100 ppm (Ctenocephalides felis [3]) was 100%, the pest or weed control at 80 µg/disc, 250 g/ha (Diabrotica balteata) was 100% and the pest or weed control at 160 µg/disc, 500 g/ha (Diabrotica balteata) was 80%. It also gave a mortality at 100 g/ha (Spodoptera frugiperda) of 100% and a mortality at 500 g/ha (Spodoptera frugiperda) of 100%.
Work on CC[C@H](NC(=O)c1cc(C(F)(F)F)cc(C(F)(F)F)c1)c1ncnn1-c1ccc(NC(=O)C2CC2)cn1 [Example I-094] yielded a mortality at 500 g/ha (Nezara viridula) of 100%, a mortality at 500 g/ha (Nilaparvata lugens) of 100% and a mortality at 100 ppm (Ctenocephalides felis [3]) of 100%. The pest or weed control at 80 µg/disc, 250 g/ha (Diabrotica balteata) was 100%.
C[C@H](NC(=O)c1cc(C(F)(F)F)cc(C(F)(F)F)c1)c1ncnn1-c1ncc(F)cc1F [Example I-077] gave a mortality at 100 g/ha (Nezara viridula) of 100%, a mortality at 500 g/ha (Nezara viridula) of 100% and a mortality at 500 g/ha (Nilaparvata lugens) of 100%. It also gave a pest or weed control at 5 µg/cm2 (Ctenocephalides felis [1]) of 100%, a pest or weed control at 0.02 mg (Boophilus microplus) of 100% and a mortality at 4 ppm (Myzus persicae [2]) of 100%. The mortality at 100 ppm (Ctenocephalides felis [3]) was 100%, the pest or weed control at 80 µg/disc, 250 g/ha (Diabrotica balteata) was 100% and the pest or weed control at 160 µg/disc, 500 g/ha (Diabrotica balteata) was 100%. For the same compound, the mortality at 100 g/ha (Spodoptera frugiperda) was 100%, the mortality at 500 g/ha (Spodoptera frugiperda) was 100% and the mortality at 100 g/ha (Myzus persicae [4]; 100 g/ha) was 90%. It also gave a mortality at 500 g/ha (Myzus persicae [4]; 500 g/ha) of 90%.
With CC[C@H](NC(=O)c1cc(C(F)(F)F)cc(C(F)(F)F)c1)c1ncnn1-c1ccc([N+](=O)[O-])cn1 [Example I-069] the mortality at 500 g/ha (Nilaparvata lugens) was 70%, the pest or weed control at 0.02 mg (Boophilus microplus) was 100% and the pest or weed control at 160 µg/disc, 500 g/ha (Diabrotica balteata) was 100%. It also gave a mortality at 500 g/ha (Spodoptera frugiperda) of 100%.
